Literature values, collected in paper PMC3010531 (Journal of the American Chemical Society, 2010).

How the values were obtained:
mH2A1.2 = mH2A1.2 (Homo sapiens, UniProt O75367); conditions: splice-variant; ref 13c
mH2A1.1 = mH2A1.1 (Homo sapiens, UniProt O75367); conditions: ref 13c
mH2A1.1 (G224E) = mH2A1.1 (G224E) (Homo sapiens, UniProt O75367, G224E); conditions: point-mutant; ref 13c
Sequence of mH2A1.1 (G224E) (O75367 whole entry G224E, species assumed): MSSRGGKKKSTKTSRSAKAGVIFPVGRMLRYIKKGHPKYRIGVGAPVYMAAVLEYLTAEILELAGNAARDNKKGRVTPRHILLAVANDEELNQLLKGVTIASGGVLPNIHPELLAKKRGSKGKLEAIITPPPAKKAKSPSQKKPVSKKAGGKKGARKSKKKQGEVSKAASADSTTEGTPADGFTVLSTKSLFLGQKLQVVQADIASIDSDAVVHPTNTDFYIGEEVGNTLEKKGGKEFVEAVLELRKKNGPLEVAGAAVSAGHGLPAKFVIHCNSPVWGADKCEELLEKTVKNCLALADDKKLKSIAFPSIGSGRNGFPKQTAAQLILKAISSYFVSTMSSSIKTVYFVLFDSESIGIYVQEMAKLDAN

Sequence of mH2A1.2 (O75367 162-372 isoform O75367-1): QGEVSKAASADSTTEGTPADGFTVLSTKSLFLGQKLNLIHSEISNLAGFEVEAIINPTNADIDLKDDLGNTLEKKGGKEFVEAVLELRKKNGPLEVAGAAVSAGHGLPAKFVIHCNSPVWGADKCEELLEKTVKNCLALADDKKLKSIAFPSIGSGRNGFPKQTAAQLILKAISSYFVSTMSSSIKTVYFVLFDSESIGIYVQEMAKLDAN
Sequence of mH2A1.1 (O75367 184-367 limits assumed, species assumed): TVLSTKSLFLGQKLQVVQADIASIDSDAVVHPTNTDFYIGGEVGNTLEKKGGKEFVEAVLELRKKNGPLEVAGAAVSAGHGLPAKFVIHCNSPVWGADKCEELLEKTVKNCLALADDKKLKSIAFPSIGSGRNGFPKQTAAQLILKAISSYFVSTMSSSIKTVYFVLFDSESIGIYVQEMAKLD

In the case of `Nc1ncnc2c1ncn2[C@@H]1O[C@H](COP(=O)(O)OP(=O)(O)OC[C@H]2OC(O)[C@H](O)[C@@H]2O)[C@@H](O)[C@H]1O` (stereo partly drawn) [ADPR, ADP-ribose], the “binding of ADPR by mH2A1.2” value (mH2A1.2) is listed as “does not bind ADPR”, the “affinity of free ADPR for mH2A1.1” value (mH2A1.1) is listed as “modest, in the μM range” and the “binding of ADPR by mH2A1.1 (G224E)” value (mH2A1.1 (G224E)) is listed as “abolishes ADPR binding”.
